Test results taken from US20250041307A1, “Uses of Bicyclic Compounds for the Treatment of Diseases” (Athira Pharma, Inc., priority 2021, published 2025).

Assays:
[1] = tested on: hepatocyte (HepG2) cell cultures; test: Cytotoxicity assay (LDH release); format: cell-based; settings: HepG2 cells, 48 hours, 0.1 to 100 μM
Protocol: This experiment was designed to obtain a preliminary assessment of cytotoxicity.
HepG2 cells were plated in 96-well cell culture plates and allowed to attach overnight at 37° C., 5% CO2 in EMEM+10% FBS. Treatments were made in complete media (EMEM+10% FBS) and included a dilution series of test compounds from 0.1 to 100 μM. Known cytotoxin cerivastatin was used as a positive assay control and prepared at a final concentration of 0.5 μM.
Growth media was replaced with treatment media (EMEM+10% FBS containing test compound dissolved in DMSO) and cells were incubated with test compounds for 48 hours. At the end of the incubation period, supernatant media from each well was transferred to a new plate and LDH assay working solution was added. LDH assay solution undergoes a colorimetric reaction in proportion to the amount of lactate dehydrogenase (an intracellular protein that was only found in the media in the presence of lysed cells) in the media. Color reaction was quantified by measurement of absorbance at a wavelength of 490 nm.
The signal range of the assay was determined by no manipulation in a negative control treatment and full lysis of all cells in a lysis control sample. Compounds that increase the level of cytotoxicity more than 20% above negative control samples were considered cytotoxic in this assay.

HGF/MET system = test: Phospho-MET ELISA; format: cell-based; settings: HEK293 cells; with 1 ng/mL recombinant HGF; 15 minutes; augmentation of MET phosphorylation (pMET ELISA)
In short: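 Serum-starved (≥8 h) HEK293 cells treated with compound plus 1 ng/mL recombinant HGF for 15 min at 37° C in triplicate, then lysed in RIPA. Equal protein (50–100 μg, BCA-normalized) run in pMET sandwich ELISA, A450 read. Responses scaled 1–10 between 1 ng/mL and 10 ng/mL HGF means, using peak efficacy.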

[2] = In vivo tissue distribution; set-up: species or system Sprague-dawley rats; settings: rat, 10 minutes post administration
Protocol: The rate of distribution to target tissues is an important feature of therapeutic molecules. Tissue distribution of exemplary compounds was performed in mixed-sex Sprague-dawley rats. Test compounds were delivered via tail vein injection (IV) and tissues were collected at Tmax (10 minutes post administration). Animals were deeply anesthetized with isoflurane and whole blood was collected from the right atrium and processed by centrifugation to produce plasma. Animals were then fully perfused with PBS administered to the left ventricle to prevent blood contamination of tissues.
Tissues were collected and homogenized, and compound content in the target tissue was quantified by LC-MS/MS. Tissue distribution rates were determined by dividing the tissue concentration of compound by the plasma concentration and multiplying by 100.

[3] = In vitro stability in human plasma; format: in vitro ADME; settings: 5 μM, 37° C.
Protocol: (§1) Bioavailability can be estimated by compound stability when exposed to conditions in the body. As an initial assessment of stability properties in a variety of conditions present in animals, exemplary compounds were tested for stability in a battery of simulated body compartments. Compounds were tested for stability in the following solutions: simulated gastric fluid (SGF: 34.2 mM NaCl, pH 1.2), simulated gastric fluid with the digestive enzyme pepsin (SGF+Enzyme: SGF with 3.2 mg/ml pepsin), simulated intestinal fluid with the mixture of enzymes in porcine pancreatin (SIF+Enzyme: 28.7 mM NaH2PO4, 105.7 mM NaCl, pH 6.8, 10 mg/ml pancreatin), rat plasma, and human plasma.
(§2) Test compounds were incubated at a final concentration of 5 μM in the above solutions at 37° C. with samples removed at the following time points: 0, 1, 2, and 4 hours. Reactions were stopped and prepared for quantification by addition of excess quench solution containing an internal standard (acetonitrile, 200 ng/mL bucetin). Test compound and internal standard in each sample was quantified by LC-MS/MS, and after internal normalization to bucetin, test compound concentration was expressed as a percentage of concentration at the 0-hour time point. Stability in the relevant test solution was then determined by the percent remaining at the 4-hour time point.

[4] = In vitro stability in rat plasma; format: in vitro ADME; settings: 5 μM, 37° C.
Protocol: as §1, §2

| Compound | Cytotoxicity [1] | Potency (HGF/MET system) | Tissue Distribution (% Plasma exposure at 10 min post IV dose) Brain [2] | Tissue Distribution (% Plasma exposure at 10 min post IV dose) Cerebellum [2] | Tissue Distribution (% Plasma exposure at 10 min post IV dose) Cortex [2] | Tissue Distribution (% Plasma exposure at 10 min post IV dose) Hippocampus [2] | Human Plasma, compound remaining after 4 hours [3] | Rat Plasma, compound remaining after 4 hours [4] | Tissue Distribution (% Plasma exposure at 10 min post IV dose) Muscle [2] | Tissue Distribution (% Plasma exposure at 10 min post IV dose) Sciatic Nerve [2] |
| --- | --- | --- | --- | --- | --- | --- | --- | --- | --- | --- |
| CCC(C)CN1CC2N(C(=O)c3ccc(C(F)(F)F)cc3)CCC(=O)N2[C@@H](C)C1=O (some centres unmarked) [Compound 1a] | ++++ (++++ indicates non-toxic at 100 μM) | ++++ (++++ indicates maximum potency at or above 0.1 nM) | ++ (++ indicates distribution between 5 and 39%) | ++ (++ indicates distribution between 5 and 39%) | ++ (++ indicates distribution between 5 and 39%) | ++ (++ indicates distribution between 5 and 39%) | ++ (++ indicates 40-79% compound remaining after 4 hours) | ++ (++ indicates 40-79% compound remaining after 4 hours) | – | – |
| CCC(C)CN1CC2N(C(=O)c3ccc(OC(F)F)cc3)CCC(=O)N2[C@@H](C)C1=O (some centres unmarked) [Compound 2a] | ++++ (++++ indicates non-toxic at 100 μM) | ++ (++ indicates maximum potency at or above 10 nM) | ++ (++ indicates distribution between 5 and 39%) | + (+ indicates distribution between 0.05 and 5%) | ++ (++ indicates distribution between 5 and 39%) | ++ (++ indicates distribution between 5 and 39%) | ++ (++ indicates 40-79% compound remaining after 4 hours) | ++ (++ indicates 40-79% compound remaining after 4 hours) | ++++ (++++ indicates distribution above 70%) | ++++ (++++ indicates distribution above 70%) |
| CCC(C)CN1CC2N(Cc3ccc(C(F)(F)F)cc3)CCC(=O)N2[C@@H](C)C1=O (some centres unmarked) [Compound 5a] | ++++ (++++ indicates non-toxic at 100 μM) | + (+ indicates maximum potency at or above 100 nM) | ++++ (++++ indicates distribution above 70%) | ++++ (++++ indicates distribution above 70%) | ++++ (++++ indicates distribution above 70%) | ++++ (++++ indicates distribution above 70%) | ++ (++ indicates 40-79% compound remaining after 4 hours) | ++ (++ indicates 40-79% compound remaining after 4 hours) | – | – |
| CCC(C)CN1CC2N(Cc3ccc(OC(F)F)cc3)CCC(=O)N2[C@@H](C)C1=O (some centres unmarked) [Compound 6a] | ++++ (++++ indicates non-toxic at 100 μM) | + (+ indicates maximum potency at or above 100 nM) | ++ (++ indicates distribution between 5 and 39%) | ++ (++ indicates distribution between 5 and 39%) | ++ (++ indicates distribution between 5 and 39%) | ++ (++ indicates distribution between 5 and 39%) | ++ (++ indicates 40-79% compound remaining after 4 hours) | +++ (+++ indicates 80-99% compound remaining after 4 hours) | ++++ (++++ indicates distribution above 70%) | ++++ (++++ indicates distribution above 70%) |
| CCC(C)CN1CC2N(Cc3ccc(O)nc3)CCC(=O)N2[C@@H](C)C1=O (some centres unmarked) [Compound 7a] | ++++ (++++ indicates non-toxic at 100 μM) | ++ (++ indicates maximum potency at or above 10 nM) | + (+ indicates distribution between 0.05 and 5%) | + (+ indicates distribution between 0.05 and 5%) | + (+ indicates distribution between 0.05 and 5%) | + (+ indicates distribution between 0.05 and 5%) | – | – | ++ (++ indicates distribution between 5 and 39%) | ++++ (++++ indicates distribution above 70%) |
| CCC(C)CN1CC2N(C(=O)c3ccc(O)cc3)CCC(=O)N2[C@@H](C)C1=O (some centres unmarked) [Compound 8a] | ++++ (++++ indicates non-toxic at 100 μM) | + (+ indicates maximum potency at or above 100 nM) | – | – | – | – | ++ (++ indicates 40-79% compound remaining after 4 hours) | ++++ (++++ indicates 100% compound remaining after 4 hours) | – | – |
| CCCCN1CC2N(C(=O)c3ccc(OC(F)F)cc3)CCC(=O)N2C(C)C1=O (centres unmarked) [Compound 17] | ++++ (++++ indicates non-toxic at 100 μM) | +++ (+++ indicates maximum potency at or above 1 nM) | – | – | – | – | +++ (+++ indicates 80-99% compound remaining after 4 hours) | ++ (++ indicates 40-79% compound remaining after 4 hours) | – | – |
| CC1C(=O)N(CCC2CCCC2)CC2N(C(=O)c3ccc(C(F)(F)F)cc3)CCC(=O)N12 (centres unmarked) [Compound 19] | ++++ (++++ indicates non-toxic at 100 μM) | +++ (+++ indicates maximum potency at or above 1 nM) | – | – | – | – | +++ (+++ indicates 80-99% compound remaining after 4 hours) | +++ (+++ indicates 80-99% compound remaining after 4 hours) | – | – |
